Assay results reported in patent publication US11149023B2, “Substituted triazole derivatives and uses thereof” (Bayer Pharma Aktiengesellschaft, priority 2017, dated 2021).

How the values were obtained:
[1] = target: human V1a receptor (Homo sapiens (Human), UniProt P37288); assay: Cellular in vitro assay for determining vasopressin receptor activity (V1a, aequorin luminescence); type: cell-based; conditions: for IC50: CHO cell line transfected with human V1a receptor, [Arg8]-vasopressin at EC50 concentration, read-out: IC50 hV1a; for ratio IC50 hV2/hV1a: selectivity, IC50 hV2 divided by IC50 hV1a
Description: (§1) B-1. Cellular In Vitro Assay for Determining Vasopressin Receptor Activity
(§2) The identification of agonists and antagonists of the V1a and V2 vasopressin receptors from humans, rats and dogs as well as the quantification of the activity of the compounds of the invention is carried out using recombinant cell lines. These cell lines originally derive from a hamster's ovary epithelial cell (Chinese Hamster Ovary, CHO K1, ATCC: American Type Culture Collection, Manassas, Va. 20108, USA). The test cell lines constitutively express the human, rat or dog V1a or V2 receptors. In case of the Gαq-coupled V1a receptors, cells are also stably transfected with a modified form of the calcium-sensitive photoproteins aequorin (human and rat V1a) or obe-lin (dog V1a), which, after reconstitution with the cofactor coelenterazine, emit light when there are increases in free calcium concentrations [Rizzuto R, Simpson A W, Brini M, Pozzan T, Nature 358, 325-327 (1992); Illarionov B A, Bondar V S, Illarionova V A, Vysotski E S, Gene 153 (2), 273-274 (1995)]. The resulting vasopressin receptor cells react to stimulation of the recombinantly expressed Via receptors by intracellular release of calcium ions, which can be quantified by the resulting photoprotein luminescence. The Gs-coupled V2 receptors are stably transfected into cell lines expressing the gene for firefly luciferase under control of a CRE-responsible promoter. Activation of V2 receptors induces the activation of the CRE-responsive promoter via cAMP increase, thereby inducing the expression of firefly luciferase. The light emitted by photoproteins of V1a cell lines as well as the light emitted by firefly luciferase of V2 cell lines corresponds to the activation or inhibition of the respective vasopressin receptor. The bioluminescence of the cell lines is detected using a suitable luminometer [Milligan G, Marshall F, Rees S, Trends in Pharmacological Sciences 17, 235-237 (1996)].
Vasopressin V1a Receptor Cell Lines:
On the day before the assay, the cells are plated out in culture medium (DMEM/F12, 2% FCS, 2 mM glutamine, 10 mM HEPES, 5 μg/ml coelenterazine) in 384-well microtiter plates and kept in a cell incubator (96% humidity, 5% v/v CO2, 37° C.). On the day of the assay, test compounds in various concentrations are placed for 10 minutes in the wells of the microtiter plate before the agonist [Arg^8]-vasopressin at EC50 concentration is added. The resulting light signal is measured immediately in a luminometer.
(§3) Table 1A below lists individual IC50 values for the compounds of the invention (including racemic mixtures as well as separated enantiomers) that were obtained from cell lines transfected with the human Via or V2 receptor: […]

[2] = target: human V2 receptor (Homo sapiens (Human), UniProt P30518); assay: Cellular in vitro assay for determining vasopressin receptor activity (V2, CRE-luciferase); type: cell-based; conditions: CHO cell line transfected with human V2 receptor; [Arg8]-vasopressin at EC50 concentration; read-out: IC50 hV2
Description: as §1, §2
Vasopressin V2 Receptor Cell Lines:
On the day before the assay, the cells are plated out in culture medium (DMEM/F12, 2% FCS, 2 mM glutamine, 10 mM HEPES) in 384-well microtiter plates and kept in a cell incubator (96% humidity, 5% v/v CO2, 37° C.). On the day of the assay, test compounds in various concentrations and the agonist [Arg^8]-vasopressin at EC50 concentration are added together to the wells, and plates are incubated for 3 hours in a cell incubator. Upon addition of the cell lysis reagent Triton™ and the substrate luciferin, luminescence of firefly luciferase is measured in a luminometer.
as §3

human V1a receptor, sequence (P37288 whole entry): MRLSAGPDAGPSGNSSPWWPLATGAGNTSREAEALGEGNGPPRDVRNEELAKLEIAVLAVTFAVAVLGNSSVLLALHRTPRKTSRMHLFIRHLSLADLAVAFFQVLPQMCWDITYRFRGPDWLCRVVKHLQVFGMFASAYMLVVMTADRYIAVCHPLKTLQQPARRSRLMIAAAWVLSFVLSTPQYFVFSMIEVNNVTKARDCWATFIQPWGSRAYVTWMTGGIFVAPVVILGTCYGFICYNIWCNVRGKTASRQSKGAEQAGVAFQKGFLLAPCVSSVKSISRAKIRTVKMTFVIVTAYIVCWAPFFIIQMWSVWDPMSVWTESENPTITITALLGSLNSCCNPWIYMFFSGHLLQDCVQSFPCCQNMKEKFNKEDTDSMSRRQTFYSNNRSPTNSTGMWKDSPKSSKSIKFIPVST
human V2 receptor, sequence (P30518 whole entry): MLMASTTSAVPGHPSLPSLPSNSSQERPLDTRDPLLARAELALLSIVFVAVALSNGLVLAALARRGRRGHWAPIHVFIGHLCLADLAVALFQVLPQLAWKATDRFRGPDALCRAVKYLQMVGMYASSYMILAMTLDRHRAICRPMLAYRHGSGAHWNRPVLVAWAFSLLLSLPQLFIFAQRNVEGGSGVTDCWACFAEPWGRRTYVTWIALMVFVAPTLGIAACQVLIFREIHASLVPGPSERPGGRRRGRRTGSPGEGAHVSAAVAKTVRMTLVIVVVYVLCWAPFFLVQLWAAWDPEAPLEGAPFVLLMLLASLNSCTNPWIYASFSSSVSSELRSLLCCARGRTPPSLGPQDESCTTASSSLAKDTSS

SMILES | IC50 [1] [nM] | ratio IC50 hV2/hV1a [1] | IC50 [2] [nM]
O=C(NC(Cn1c(-c2ccc(Cl)cc2)nn(Cc2ncn(-c3ncccc3Cl)n2)c1=O)C(F)(F)F)C1CC1 (racemic) [Example 14, N-{3-[3-(4-Chlorophenyl)-1-{[1-(3-chloropyridin-2-yl)-1H-1,2,4-triazol-3-yl]methyl}-5-oxo-1,5-dihydro-4H-1,2,4-triazol-4-yl]-1,1,1-trifluoropropan-2-yl}cyclopropanecarboxamide] | 12.4 | 17.7 | 220
O=C(NC(Cn1c(-c2ccc(Cl)cc2)nn(Cc2ncn(-c3ncccc3Cl)n2)c1=O)C(F)(F)F)C1CC(F)(F)C1 (racemic) [Example 15, N-{3-[3-(4-Chlorophenyl)-1-{[1-(3-chloropyridin-2-yl)-1H-1,2,4-triazol-3-yl]methyl}-5-oxo-1,5-dihydro-4H-1,2,4-triazol-4-yl]-1,1,1-trifluoropropan-2-yl}-3,3-difluorocyclobutanecarboxamide] | 2.05 | 38.3 | 78.5
CC(=O)OC(C)(C)C(=O)NC(Cn1c(-c2ccc(Cl)cc2)nn(Cc2ncn(-c3ncccc3Cl)n2)c1=O)C(F)(F)F (racemic) [Example 16, 1-({3-[3-(4-Chlorophenyl)-1-{[1-(3-chloropyridin-2-yl)-1H-1,2,4-triazol-3-yl]methyl}-5-oxo-1,5-dihydro-4H-1,2,4-triazol-4-yl]-1,1,1-trifluoropropan-2-yl}amino)-2-methyl-1-oxopropan-2-yl acetate] | 5.05 | 27.7 | 140
CC(C)(O)C(=O)NC(Cn1c(-c2ccc(Cl)cc2)nn(Cc2ncn(-c3ncccc3Cl)n2)c1=O)C(F)(F)F (racemic) [Example 17, N-{3-[3-(4-Chlorophenyl)-1-{[1-(3-chloropyridin-2-yl)-1H-1,2,4-triazol-3-yl]methyl}-5-oxo-1,5-dihydro-4H-1,2,4-triazol-4-yl]-1,1,1-trifluoropropan-2-yl}-2-hydroxy-2-methylpropanamide] | 9.55 | 29.3 | 280
CS(=O)(=O)NCC(=O)NC(Cn1c(-c2ccc(Cl)cc2)nn(Cc2ncn(-c3ncccc3Cl)n2)c1=O)C(F)(F)F (racemic) [Example 19, N-{3-[3-(4-Chlorophenyl)-1-{[1-(3-chloropyridin-2-yl)-1H-1,2,4-triazol-3-yl]methyl}-5-oxo-1,5-dihydro-4H-1,2,4-triazol-4-yl]-1,1,1-trifluoropropan-2-yl}-N^2-(methylsulfonyl)glycinamide] | 2.2 | 46.1 | 102
O=C(CN1CCOC1=O)NC(Cn1c(-c2ccc(Cl)cc2)nn(Cc2ncn(-c3ncccc3Cl)n2)c1=O)C(F)(F)F (racemic) [Example 20, N-{3-[3-(4-Chlorophenyl)-1-{[1-(3-chloropyridin-2-yl)-1H-1,2,4-triazol-3-yl]methyl}-5-oxo-1,5-dihydro-4H-1,2,4-triazol-4-yl]-1,1,1-trifluoropropan-2-yl}-2-(2-oxo-1,3-oxazolidin-3-yl)acetamide] | 8.9 | 58.4 | 520
N#CC1(C(=O)NC(Cn2c(-c3ccc(Cl)cc3)nn(Cc3ncn(-c4ncccc4Cl)n3)c2=O)C(F)(F)F)CC1 (racemic) [Example 21] | 5.95 | 47.5 | 283
O=C(NC(Cn1c(-c2ccc(Cl)cc2)nn(Cc2ncn(-c3ncccc3Cl)n2)c1=O)C(F)(F)F)C1(O)CC1 (racemic) [Example 22, N-{3-[3-(4-Chlorophenyl)-1-{[1-(3-chloropyridin-2-yl)-1H-1,2,4-triazol-3-yl]methyl}-5-oxo-1,5-dihydro-4H-1,2,4-triazol-4-yl]-1,1,1-trifluoropropan-2-yl}-1-hydroxycyclopropanecarboxamide] | 4.05 | 37.0 | 150
O=C(/C=C/C(F)(F)F)NC(Cn1c(-c2ccc(Cl)cc2)nn(Cc2ncn(-c3ncccc3Cl)n2)c1=O)C(F)(F)F (racemic) [Example 25, (2E)-N-{3-[3-(4-Chlorophenyl)-1-{[1-(3-chloropyridin-2-yl)-1H-1,2,4-triazol-3-yl]methyl}-5-oxo-1,5-dihydro-4H-1,2,4-triazol-4-yl]-1,1,1-trifluoropropan-2-yl}-4,4,4-trifluorobut-2-enamide] | 1.75 | 98.6 | 172
CC(C)(C)OC(=O)NC1(C(=O)NC(Cn2c(-c3ccc(Cl)cc3)nn(Cc3ncn(-c4ncccc4Cl)n3)c2=O)C(F)(F)F)CC1 (racemic) [Example 26, tert-Butyl [1-({3-[3-(4-chlorophenyl)-1-{[1-(3-chloropyridin-2-yl)-1H-1,2,4-triazol-3-yl]methyl}-5-oxo-1,5-dihydro-4H-1,2,4-triazol-4-yl]-1,1,1-trifluoropropan-2-yl}carbamoyl)cyclopropyl]-carbamate] | 9.15 | 9.0 | 82.5
NC1(C(=O)NC(Cn2c(-c3ccc(Cl)cc3)nn(Cc3ncn(-c4ncccc4Cl)n3)c2=O)C(F)(F)F)CC1 (racemic) [Example 27, 1-Amino-N-{3-[3-(4-chlorophenyl)-1-{[1-(3-chloropyridin-2-yl)-1H-1,2,4-triazol-3-yl]methyl}-5-oxo-1,5-dihydro-4H-1,2,4-triazol-4-yl]-1,1,1-trifluoropropan-2-yl}cyclopropanecarboxamide] | 215 | 8.8 | 1900
NC1(C(=O)NC(Cn2c(-c3ccc(Cl)cc3)nn(Cc3ncn(-c4ncccc4Cl)n3)c2=O)C(F)(F)F)CCC1 (racemic) [Example 29, 1-Amino-N-{3-[3-(4-chlorophenyl)-1-{[1-(3-chloropyridin-2-yl)-1H-1,2,4-triazol-3-yl]methyl}-5-oxo-1,5-dihydro-4H-1,2,4-triazol-4-yl]-1,1,1-trifluoropropan-2-yl}cyclobutanecarboxamide] | 5.65 | 36.0 | 203
O=C(CC(F)=C(F)F)NC(Cn1c(-c2ccc(Cl)cc2)nn(Cc2ncn(-c3ncccc3Cl)n2)c1=O)C(F)(F)F (racemic) [Example 31, N-{3-[3-(4-Chlorophenyl)-1-{[1-(3-chloropyridin-2-yl)-1H-1,2,4-triazol-3-yl]methyl}-5-oxo-1,5-dihydro-4H-1,2,4-triazol-4-yl]-1,1,1-trifluoropropan-2-yl}-3,4,4-trifluorobut-3-enamide] | 3.4 | 32.1 | 109
O=C(CCC(F)(F)F)NC(Cn1c(-c2ccc(Cl)cc2)nn(Cc2ncn(-c3ncccc3Cl)n2)c1=O)C(F)(F)F (racemic) [Example 32, N-{3-[3-(4-Chlorophenyl)-1-{[1-(3-chloropyridin-2-yl)-1H-1,2,4-triazol-3-yl]methyl}-5-oxo-1,5-dihydro-4H-1,2,4-triazol-4-yl]-1,1,1-trifluoropropan-2-yl}-4,4,4-trifluorobutanamide] | 1.17 | 67.0 | 78.2
O=C(NC(Cn1c(-c2ccc(Cl)cc2)nn(Cc2ncn(-c3ncccc3Cl)n2)c1=O)C(F)(F)F)C1CS(=O)(=O)C1 (racemic) [Example 38, N-{3-[3-(4-Chlorophenyl)-1-{[1-(3-chloropyridin-2-yl)-1H-1,2,4-triazol-3-yl]methyl}-5-oxo-1,5-dihydro-4H-1,2,4-triazol-4-yl]-1,1,1-trifluoropropan-2-yl}thietane-3-carboxamide 1,1-dioxide] | 1.7 | 28.2 | 48
